Source: article PMC9975698, “Hyperoside alleviates toxicity of β-amyloid via endoplasmic reticulum-mitochondrial calcium signal transduction cascade in APP/PS1 double transgenic Alzheimer's disease mice” (Redox Biology, 2023)

Assays:
APP/PS1 mice [1] = assay: GFAP immunofluorescent staining of brain tissues; assay type: in vivo; details: cortex and hippocampus, HYP nasal, 8 weeks
Method: All animal care and experimental procedures were performed in accordance with the “Institutional Animal Care and User Committee Guidelines” of the Macau University of Science and Technology. APP/PSEN1 (APP/PS1) mice (N000175) were purchased from the Nanjing Institute of Biomedical Sciences, Nanjing University, China, weighing 25 ± 5 g. The animals were housed in a temperature-controlled room with a 12 h light/dark cycle and given ad libitum food and water. Male mice were randomly divided into the following 6 experimental groups. (a) wild-type group (n = 6), (b) APP/PS1 group (n = 6), (c) HYP (20 mg/kg group) (n = 7), (d) HYP (40 mg/kg) group (n = 8), (e) HYP (80 mg/kg) group (n = 8) and (f) memantine (MEM) (10 mg/kg) positive control group (n = 8). HYP was dissolved in the solvent containing 10% DMSO, 40% PEG300 and 5% Tween-80 in PBS, and administrated via nasal injection for every 3 days with a volume of 0.5 μL/g of body weight for 8 consecutive weeks. Brain tissues from all treatment groups were fixed and embedded in paraffin for microtome sectioning and immunofluorescence staining. […] The coverslips were then mounted with FluorSave™ mounting media (Calbiochem, San Diego, CA, USA) for fluorescence imaging. […]

HT22 cells = assay: LIVE/DEAD cells analysis (calcein AM / PI); assay type: cell-based; details: aggregated Aβ-treated HT22, HYP co-treatment 24 h
Method: According to the manufacturer's instructions, cell death was detected by Calcein AM Cell Viability Assay Kit (Beyotime, Shanghai, CHINA). 5 × 10^4 HT22 cells per well were seeded in 24-well plates, and HT22 was treated with HYP (20–80 μM) or PBS for 24 h. After overnight incubation, treated cells were stained with Calcein/Propidium Iodide (PI) dye for 20 min. Cells images were then visualized and captured by using Olympus IX71 fluorescence microscope with FITC and TRITC filters consecutively. Green and red fluorescence images were merged and analyzed with cellSens Standard 1.8.1 software. The percentage of cell death was quantified by dividing the number of dead cells (red fluorescence) by the total number of cells.

APP/PS1 mice [2] = assay: Dot blot of Aβ forms in cortex and hippocampus lysates; assay type: in vivo
Method: 4 μL of prepared cell or animal sample protein solutions were dotted for adsorption onto methanol-pre-activated PVDF membranes and then blocked with 5% non-fat dry milk in Tris-buffered saline and Tween 20 for 1 h. The samples were incubated overnight at 4 °C with anti-amyloid fibril primary antibody [mOC87] (Abcam, MA, USA), anti-amyloid oligomer A11 (Invitrogen, CA, USA) or purified anti-β-amyloid (1–16) antibody (clone 6E10) (Biolegend, CA, USA) (1:1000), followed by HRP-conjugated secondary antibody. Protein bands were detected using Super Signal Sensitive ECL Western Blotting Detection Reagent (Beyotime, Beijing, China) and observed using a gel imaging device (Amersham Imager 800, GE, Tokyo, Japan). All animal care and experimental procedures were performed in accordance with the “Institutional Animal Care and User Committee Guidelines” of the Macau University of Science and Technology. APP/PSEN1 (APP/PS1) mice (N000175) were purchased from the Nanjing Institute of Biomedical Sciences, Nanjing University, China, weighing 25 ± 5 g. The animals were housed in a temperature-controlled room with a 12 h light/dark cycle and given ad libitum food and water. Male mice were randomly divided into the following 6 experimental groups. […]

O=c1c(O[C@@H]2O[C@H](CO)[C@H](O)[C@H](O)[C@H]2O)c(-c2ccc(O)c(O)c2)oc2cc(O)cc(O)c12 [HYP, Quercetin-3-O-β-D-galactopyranoside]
level of GFAP (APP/PS1 mice [1]): decreased the level of GFAP in both the cortex and hippocampus
cell viability by calcein AM / PI staining (HT22 cells): increase of cell viability
level of oligomeric, fibrillar and total Aβ (dot blot) (APP/PS1 mice [2]): reduced the level of both oligomeric and fibrillar form of Aβ, without altering the level of total Aβ
